# Values of other authors as cited in patent publication US20020192834A1, “Analysis of caffeine” (priority 2001, published 2002).
# Details: after consuming caffeine in coffee; background statement
smiles,measurement,value
"Cn1c(=O)c2c(ncn2C)n(C)c1=O [caffeine, trimethylxanthine]",half-life of caffeine,about 6 hours
